Assay results reported in US10555961B2 (INDIANA UNIVERSITY RESEARCH AND TECHNOLOGY CORPORATION, priority 2015, dated 2020).

Assays:
Format in all cases: cell-based
[1] = system: Bacillus subtilis; experiment: Bacterial assay, kill zones and growth inhibition zones; conditions: FIG. 2
Method: (§1) Bacterial assays were performed using native gentamicin and the C-1, C-1a, C-2, and C-2a congeners of gentamicin.

[2] = system: Klebsiella pneumonia; experiment: as above; conditions: FIG. 2
Method: as §1

[3] = system: variant of Klebsiella pneumonia that exhibits multi-drug resistance; conditions: multi-drug resistant Klebsiella pneumonia, FIG. 2
Method: as §1

[4] = system: UGAC stop codon; experiment: Stop codon readthrough (FIG. 7); conditions: 200 μg mL^−1 for 24 hours, relative to controls
Method: Native gentamicin and various congeners prepared as in Example 1 were tested to determine their effect on stop codon readthrough.
In order to determine the optimal concentrations of the aminoglycosides (tobramycin, amikacin, and gentamicin) to use in the mammalian translation system, increasing amounts of each aminoglycoside were added to a rabbit reticulocyte translation system while expressing the QX(N) (UGAC) construct. The effect of aminoglycosides on total protein synthesis was monitored by comparing the total amount of proteins synthesized in the presence and absence of various aminoglycosides. A range of aminoglycoside concentrations was then determined that allowed a maximal amount of termination suppression without inhibiting total protein synthesis more than two- to threefold. In vitro translation reactions were carried out using the TNT coupled transcription/translation system (Promega, Madison, Wis.). […] The gel was dried and subjected to Phosphorlmager analysis in order to quantitate the amount of truncated and full-length protein species. The percentage of readthrough was then calculated as the amount of full-length protein/(truncated+full-length species)×100%.

C-1 gentamicin
anti-bacterial activity (kill zones and growth inhibition zones) [1]: demonstrated anti-bacterial activity | anti-bacterial activity (kill zones and growth inhibition zones) [2]: demonstrated anti-bacterial activity | anti-bacterial activity (kill zones and growth inhibition zones) [3]: demonstrated anti-bacterial activity | readthrough of the stop codon UGAC [4]: greater readthrough relative to controls

C-1a gentamicin
anti-bacterial activity (kill zones and growth inhibition zones) [1]: demonstrated anti-bacterial activity | anti-bacterial activity (kill zones and growth inhibition zones) [2]: demonstrated anti-bacterial activity | anti-bacterial activity (kill zones and growth inhibition zones) [3]: demonstrated anti-bacterial activity

C-2 gentamicin
anti-bacterial activity (kill zones and growth inhibition zones) [1]: demonstrated anti-bacterial activity | anti-bacterial activity (kill zones and growth inhibition zones) [2]: demonstrated anti-bacterial activity | anti-bacterial activity (kill zones and growth inhibition zones) [3]: demonstrated anti-bacterial activity | readthrough of the stop codon UGAC [4]: greater readthrough relative to controls

C-2a gentamicin
anti-bacterial activity (kill zones and growth inhibition zones) [1]: demonstrated anti-bacterial activity | anti-bacterial activity (kill zones and growth inhibition zones) [2]: demonstrated anti-bacterial activity | anti-bacterial activity (kill zones and growth inhibition zones) [3]: demonstrated anti-bacterial activity
